Key:
[1] = target: T1, II-ADH (anodic band of liver alcohol dehydrogenase) (Homo sapiens, UniProt P08319); assay: Inhibition of purified II-ADH (anodic band, pyrazole-insensitive liver alcohol dehydrogenase) activity; type: biochemical; settings: 33 micromolar 4-methyl-pyrazole, product after agarose-AMP
T1 construct: Starting with 100 g frozen human liver; from tissue; host or cells: human liver (frozen)
From the text: (§1) However, purification of these enzymes has been a complicated and difficult procedure. […] Elution is preferably carried out with pyrazole solution or with a lower alkanol having at least two carbon atoms, e.g., ethanol, 1-propanol, 1-butanol, 1-pentanol, and the like. Further purification and separation of isoenzymes from the bound portion can be achieved by alcohol gradient elution. The alcohol dehydrogenase of the bound portion can be separated from the NAD after elution, if desired, by conventional dialysis procedures. […] The anodic band of liver alcohol dehydrogenase, as identified by Li et al., Biochem. Biophys. Res. Comm.

[2] = system: other forms of liver alcohol dehydrogenase; assay: Inhibition of the other (pyrazole-sensitive) forms of liver alcohol dehydrogenase; type: biochemical, human; settings: 0.2 mM 4-methylpyrazole, 100 mM ethanol, remainder of the purified enzyme forms
From the text: as §1

[3] = system: human liver alcohol dehydrogenase; assay: Inhibition of alcohol dehydrogenase activity of starting human liver; type: biochemical; settings: 33 micromolar 4-methyl-pyrazole, pH 10, frozen human liver starting material
Procedure: Starting with 100 g frozen human liver having a specific activity of pH 10 of about 0.05 I.U./mg and low inhibition (~ 75%) by 33 micromolar 4-methyl-pyrazole at pH 10 as well as high intensity of stain for the anodic band on starch gel electrophoresis, the liver was homogenized in 2.5 volumes water at 4° C., centrifuged for 30 min. at 30,000 rpm in a 30 rotor to provide 240 ml of clear supernatant assaying at 58 I.U. of pyrazole-insensitive activity with a specific activity of 0.002 I.U./mg.

alcohol dehydrogenase = assay: Dissociation of binary complex of alcohol dehydrogenase with NAD; type: binding; settings: read-out: dissociation constant of the complex
From the text: The binary complex, in which two molecules of NAD are complexed with 1 molecule of alcohol dehydrogenase, can be prepared simply by mixing NAD with the crude extract of alcohol dehydrogenase. In order to ensure that substantially all of the alcohol dehydrogenase is present in solution in the form of the binary complex, it is desirable to employ an excess of the amount of NAD over that theoretically required. […] Although larger amounts of NAD can be used, there is no advantage in using a concentration above about 10^-3 molar since optimum results are achieved at that concentration with no further improvement even when the concentration of the NAD is 10^-2 molar or even higher, the results being approximately the same at these higher concentrations. The aqueous medium containing the binary complex may be acidified if desired. Satisfactory results are obtained at pH 8.0, but may be improved by decreasing the pH to approximately 7.5 in order to achieve optimum results; however, no further improvement is achieved by further lowering of the pH, the results remaining about the same even at a pH below 6.

T1 sequence (P08319 2-380 limits assumed): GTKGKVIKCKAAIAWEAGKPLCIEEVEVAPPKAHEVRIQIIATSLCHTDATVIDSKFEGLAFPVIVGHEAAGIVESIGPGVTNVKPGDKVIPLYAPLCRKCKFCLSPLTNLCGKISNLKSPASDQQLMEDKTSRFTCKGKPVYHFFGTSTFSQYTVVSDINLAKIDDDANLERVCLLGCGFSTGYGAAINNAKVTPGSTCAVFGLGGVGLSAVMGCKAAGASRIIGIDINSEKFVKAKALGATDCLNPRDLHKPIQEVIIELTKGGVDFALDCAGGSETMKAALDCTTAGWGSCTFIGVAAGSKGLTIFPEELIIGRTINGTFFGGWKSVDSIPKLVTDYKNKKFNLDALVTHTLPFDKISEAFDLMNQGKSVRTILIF

Compound | inhibition (in words) [1] | inhibition of activity [2] | inhibition [3] | Kd (alcohol dehydrogenase)
Cc1cn[nH]c1 [4-methylpyrazole] | virtually uninhibited | more than 90% | ~ 75% | 
NC(=O)c1ccc[n+]([C@@H]2O[C@H](COP(=O)([O-])OP(=O)(O)OC[C@H]3O[C@@H](n4cnc5c(N)ncnc54)[C@H](O)[C@@H]3O)[C@@H](O)[C@H]2O)c1 [NAD] |  |  |  | ~1000 nM

— patent US4131727A, “Method of purifying alcohol dehydrogenase and affinity resin therefor” (President and Fellows of Harvard College, priority 1978, dated 1978)
